Measurements as given in PMC8617031, “Development of a BCL-xL and BCL-2 dual degrader with improved anti-leukemic activity,” (Nature Communications, 2021).
Values joined by “and” are separate entries in the source; they are usually repeats but may differ in a detail not shown here. Equal values may be shown once.

Legend:
[1] = system: BCL-xL/PROTAC/VCB ternary complex (HiBit-BCL-xL, HaloTag-VHL); assay: NanoBRET intracellular ternary complex formation in 293T cells, BCL-xL; format: cell-based, human; conditions: for NanoBRET signal (610/450 ratio, background-subtracted), Ave, Bcl-xl: Ave of Read1 and Read2, per replicate well; for NanoBRET signal (610/450 ratio, background-subtracted), Read1, Bcl-xl / NanoBRET signal (610/450 ratio, background-subtracted), Read2, Bcl-xl: individual replicate wells
Text: (§1) Plasmids HaloTag-VHL (Cat. No. CS1679C155) and CMV HiBit (Cat. No. CS1956B03) were purchased from Promega. HiBit-BCL-xL and HiBit-BCL-2 were constructed previously. The two mutants (HiBit-BCL-xL-K157-only and HiBit-BCL-xL-K-ko) were constructed through Gibson assembly method. The primer pair (5′-[…]-3′ and 5′-[…]c[…]-3′) and the template Flag-BCL-xL-K157-only or Flag-BCL-xL-K-ko (pDL2129)[2] were used to clone the BCL-xL-K157-only-containing and BCL-xL-K-ko-containing fragments, respectively. The primer pair (5′-[…]g[…]-3′ and 5′-[…]-3′) and pBit3.1-N (Cat. No. N2361, Promega) were used to clone the vector-containing fragment. The PCR fragments were assembled using NEBuilder® HiFi DNA Assembly Master Mix (Cat. No. E2621, NEB, Ipswich, MA, USA). DNA sequences in all these plasmids were authenticated by automatic sequencing. […] After 24 h, 2 × 10^4 transfected cells were seeded into white 96-well tissue culture plates in Gibco™ Opti-MEM™ I Reduced Serum Medium, No Phenol Red (Cat. No. 11-058-021, Fisher) containing 4% FBS with or without HaloTag NanoBRET 618 Ligand (Cat. No. PRN1662, Promega) and incubated overnight at 37 °C, 5% CO2. The following day, serial diluted compounds were added into the medium and plates were incubated at 37 °C, 5% CO2, for 6 h. After treatment, NanoBRET Nano-Glo Substrate (cat. no. N1662, Promega) was added into the medium, and the contents were mixed by shaking the plate for 30 s before measuring donor and acceptor signals on Biotek plate reader. Dual-filtered luminescence was collected with a 450/50 nm bandpass filter (donor, NanoBiT-BCL-XL protein or NanoBiT-BCL-2 protein) and a 610-nm longpass filter (acceptor, HaloTag NanoBRET ligand) using an integration time of 0.5 s. mBRET ratios were calculated following the NanoBRET™ Nano-Glo® Detection System (Cat. No. N1662, Promega).

[2] = system: BCL-2/PROTAC/VCB ternary complex (HiBit-BCL-2, HaloTag-VHL); assay: NanoBRET intracellular ternary complex formation in 293T cells, BCL-2; format: cell-based, human; conditions: for NanoBRET signal (610/450 ratio, background-subtracted), Ave, Bcl-2: Ave of Read1 and Read2, per replicate well; for NanoBRET signal (610/450 ratio, background-subtracted), Read1, Bcl-2 / NanoBRET signal (610/450 ratio, background-subtracted), Read2, Bcl-2: individual replicate wells
Text: as §1

Structure (SMILES)	NanoBRET signal (610/450 ratio, background-subtracted), Ave, Bcl-xl ([1]; 0.333 uM)	NanoBRET signal (610/450 ratio, background-subtracted), Read1, Bcl-xl ([1]; 0.333 uM)	NanoBRET signal (610/450 ratio, background-subtracted), Read2, Bcl-xl ([1]; 0.333 uM)	NanoBRET signal (610/450 ratio, background-subtracted), Ave, Bcl-xl ([1]; 1 uM)	NanoBRET signal (610/450 ratio, background-subtracted), Read1, Bcl-xl ([1]; 1 uM)	NanoBRET signal (610/450 ratio, background-subtracted), Read2, Bcl-xl ([1]; 1 uM)	NanoBRET signal (610/450 ratio, background-subtracted), Ave, Bcl-xl ([1]; 3 uM)	NanoBRET signal (610/450 ratio, background-subtracted), Read1, Bcl-xl ([1]; 3 uM)	NanoBRET signal (610/450 ratio, background-subtracted), Read2, Bcl-xl ([1]; 3 uM)	NanoBRET signal (610/450 ratio, background-subtracted), Ave, Bcl-2 ([2]; 0.333 uM)	NanoBRET signal (610/450 ratio, background-subtracted), Read1, Bcl-2 ([2]; 0.333 uM)	NanoBRET signal (610/450 ratio, background-subtracted), Read2, Bcl-2 ([2]; 0.333 uM)	NanoBRET signal (610/450 ratio, background-subtracted), Ave, Bcl-2 ([2]; 1 uM)	NanoBRET signal (610/450 ratio, background-subtracted), Read1, Bcl-2 ([2]; 1 uM)	NanoBRET signal (610/450 ratio, background-subtracted), Read2, Bcl-2 ([2]; 1 uM)	NanoBRET signal (610/450 ratio, background-subtracted), Ave, Bcl-2 ([2]; 3 uM)	NanoBRET signal (610/450 ratio, background-subtracted), Read1, Bcl-2 ([2]; 3 uM)	NanoBRET signal (610/450 ratio, background-subtracted), Read2, Bcl-2 ([2]; 3 uM)
Cc1ncsc1-c1ccc(C(C)NC(=O)C2CC(O)CN2C(=O)C(NC(=O)CCCCCCCC(=O)N2CCN(CC3(C)CCC(c4ccc(Cl)cc4)=C(CN4CCN(c5ccc(C(=O)NS(=O)(=O)c6ccc(NC(CCN7CCOCC7)CSc7ccccc7)c(S(=O)(=O)C(F)(F)F)c6)cc5)CC4)C3)CC2)C(C)(C)C)cc1 (mixture of isomers) [319-C9]	7.303 and 5.548 and 6.719	7.675 and 6.0029 and 7.554	6.932 and 5.093 and 5.885	6.725 and 7.112	7.559 and 11.4906 and 7.902	5.8908 and 9.929 and 6.321	8.449 and 8.436 and 7.804	8.506 and 8.886 and 8.744	8.392 and 7.986 and 6.863	5.707 and 5.966 and 5.739	6.091 and 5.602 and 5.911	5.322 and 6.329 and 5.568	8.164 and 7.003 and 7.361	7.94 and 7.065 and 7.5271	8.387 and 6.941 and 7.196	7.788 and 8.559 and 8.325	7.715 and 8.321 and 8.876	7.862 and 8.797 and 7.774
Cc1ncsc1-c1ccc(C(C)NC(=O)C2CC(O)CN2C(=O)C(NC(=O)CCCCCCCCC(=O)N2CCN(CC3(C)CCC(c4ccc(Cl)cc4)=C(CN4CCN(c5ccc(C(=O)NS(=O)(=O)c6ccc(NC(CCN7CCOCC7)CSc7ccccc7)c(S(=O)(=O)C(F)(F)F)c6)cc5)CC4)C3)CC2)C(C)(C)C)cc1 (mixture of isomers) [319-C10]	7.322 and 6.232 and 5.134	7.3 and 6.35 and 5.398	7.344 and 6.1137 and 4.87	7.385 and 6.082 and 6.14	7.049 and 5.821 and 5.916	7.722 and 6.342 and 6.364	5.435 and 6.539 and 6.402	5.79 and 7.0778 and 5.898	5.08 and 6.001 and 6.906	5.28 and 5.803 and 5.204	5.21 and 6.342 and 5.353	5.35 and 5.263 and 5.054	6.3574 and 6.177 and 5.647	6.493 and 6.555 and 5.614	6.221 and 5.799 and 5.68	5.897 and 6.959 and 6.718	5.772 and 7.082 and 6.87	6.022 and 6.837 and 6.566
